Laboratory results: paper PMC6594366 (Journal of the American Chemical Society, 2018)

Target: human serum albumin (HSA) (Homo sapiens, UniProt P02768)
Assay: fluorescent probe displaced from HSA by GdLx
Format: binding

human serum albumin (HSA), sequence (P02768 25-609): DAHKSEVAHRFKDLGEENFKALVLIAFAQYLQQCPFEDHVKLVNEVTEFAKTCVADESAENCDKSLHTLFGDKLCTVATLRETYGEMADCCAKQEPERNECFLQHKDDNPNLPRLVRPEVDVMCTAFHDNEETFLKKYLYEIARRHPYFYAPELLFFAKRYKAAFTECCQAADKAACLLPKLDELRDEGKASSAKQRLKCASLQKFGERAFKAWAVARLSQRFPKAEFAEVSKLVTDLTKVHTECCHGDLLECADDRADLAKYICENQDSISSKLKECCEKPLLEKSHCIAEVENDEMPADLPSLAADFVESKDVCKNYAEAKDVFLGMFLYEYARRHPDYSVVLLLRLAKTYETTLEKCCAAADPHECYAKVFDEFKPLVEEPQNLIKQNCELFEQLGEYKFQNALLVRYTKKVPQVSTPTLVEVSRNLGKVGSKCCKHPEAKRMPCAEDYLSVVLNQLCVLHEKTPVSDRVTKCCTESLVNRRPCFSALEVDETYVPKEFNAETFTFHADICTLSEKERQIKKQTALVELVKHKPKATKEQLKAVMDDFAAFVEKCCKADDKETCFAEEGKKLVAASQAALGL

Compound: CN(C)c1cccc2c(S(=O)(=O)NCC(=O)O)cccc12 [dansylglycine]
- fluorescent probe displaced from HSA by GdLx: Determined by displacement of fluorescent dansylglycine from HSA upon addition of GdLx
